These results are taken from the METLIN SMRT retention time set (Domingo-Almenara et al. 2019).

Structures are written as SMILES.

This series in a line: gradient 5% acetonitrile 3 min, to 50% in 2 min, to 85% in 15 min, held 3 min, 100 µL/min. The note with it: column: Zorbax Extend-C18 2.1 x 50 mm; eluents: water / acetonitrile, 0.1% formic acid. The procedure, abridged: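 Values are retention times taken from adduct peaks that software picked and an analyst inspected. The pure standards were run as mixtures of ~100 molecules on HPLC linked to a quadrupole time-of-flight mass spectrometer, in positive and negative ionization mode. A Zorbax Extend-C18 column (2.1 × 50 mm, 1.8 μm) was used at 100 μL/min with water and acetonitrile, each including 0.1% formic acid.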
Consider `COc1ccc(-c2cc3nn(CC(=O)Nc4ccccc4OC)c(=O)n3c(C)n2)cc1`, for which the RP-LC retention time came out at 736 s.

Consider `COc1ccc(S(=O)(=O)Nc2ccc3c(c2)CCC(=O)N3CC(C)C)cc1`, for which the RP-LC retention time came out at 832 s.

With `Cc1ccc(NC(=O)Cn2ccc3ccc(-c4nnc(C)o4)cc32)cc1`, the RP-LC retention time is 824 s.

Compound `CCC(C)C(NC(=O)c1cc(OC)cc(OC)c1)C(=O)Nc1nc2ccccc2[nH]1` (stereo not given) yielded an RP-LC retention time of 769 s.

`COc1ccc(CNC(=O)c2ccc3c(=O)n(-c4cccc(OC)c4)c(N4CCCC4)nc3c2)cc1` displayed an RP-LC retention time of 833 s.

As to `O=C(Cn1nc(N2CCCC2)c2ccccc2c1=O)Nc1ccc(F)cc1Cl`, the RP-LC retention time worked out at 1010 s.

On to `CCC(=O)N(C1CCOCC1)C1CCN(S(=O)(=O)c2ccc(OC)cc2)CC1`, for which the RP-LC retention time came to 800 s.

In the case of `C=CCN1CCN(c2nc3cc(C(=O)OC)ccc3c(=O)n2-c2ccc(Cl)cc2)CC1`, the RP-LC retention time is 681 s.

In the case of `O=C(Nc1nnc(C2CC(=O)N(c3ccc(F)cc3)C2)o1)c1ccccc1` (stereo not given), the RP-LC retention time was 711 s.

On to `COc1ccc(OC)c(S(=O)(=O)N2CCC([C@H]3[C@@H](OC)C(=O)N3C(C)C)CC2)c1`, for which the RP-LC retention time was determined as 809 s.

`O=C(Cn1nc2c(N3CCCCCC3)nccn2c1=O)Nc1ccc(F)c(Cl)c1`: the RP-LC retention time is 786 s.

In the case of `COCCCNC(=O)C1c2ccccc2C(=O)N1Cc1ccccc1C` (stereo not given), the RP-LC retention time turned out to be 753 s.

`CCOc1cc(CNC(=O)C2=Cc3cc(OC)ccc3OC2)ccc1OC` registered an RP-LC retention time of 873 s.

In turn, `CCOc1ccc(C(=O)NCc2noc(-c3ccc(OC)cc3)n2)cc1` displayed an RP-LC retention time of 876 s.

Compound `Cc1ccccc1-c1nc(Cn2ccnc2)no1` yielded an RP-LC retention time of 609 s.

Consider `Cc1cc(N2CCN(C)CC2)nc2ccc(NC(=O)CCC(=O)NCCc3ccc(Cl)cc3)cc12`, for which the RP-LC retention time is 581 s.

`COC(=O)c1ncn2c1C(=O)N(CCCc1ccccc1)C(C)(C(=O)NC1CCCCC1)C2` (stereo not given) displayed an RP-LC retention time of 820 s.

As to `Cc1cc(OCC(=O)Nc2ccc(C#N)cc2)nc(-c2ccc(F)cc2)n1`, the RP-LC retention time was 976 s.

`COc1ccc(-c2noc(Cn3c(=O)n(C(C)C)c(=O)c4ccccc43)n2)cc1`: the RP-LC retention time came out at 1110 s.

With `CCn1cc(C(=O)O)c(=O)c2ccc(Cc3ccccc3)nc21`, the RP-LC retention time came out at 1010 s.

Compound `Cc1nc(CCNC(=O)C2CCN(S(=O)(=O)c3ccccc3C(F)(F)F)CC2)cs1` showed an RP-LC retention time of 753 s.

As for `COc1ccc(-c2ccnn2-c2ccc(SCC(=O)NC(C)C)nn2)cc1`, the RP-LC retention time stood at 932 s.

In the case of `CCOC(=O)CC(=O)N1CCSC1COc1ccccc1OC` (stereo not given), the RP-LC retention time came to 903 s.

In turn, `O=S(=O)(NC1CCCCC1)c1ccc(-c2nnc(C3CCC3)o2)o1` displayed an RP-LC retention time of 968 s.

`COc1cc(NC(=O)Cn2c(N3CCOCC3)nc(C)cc2=O)cc(OC)c1` displayed an RP-LC retention time of 655 s.

As for `Cc1cc(=O)n(CC(=O)Nc2ccc(F)c(F)c2)cn1`, the RP-LC retention time was 620 s.

In turn, `O=C(NCCn1c(=O)n(Cc2ccc(F)cc2)c2cccnc21)C1CC1` yielded an RP-LC retention time of 711 s.

The compound `COc1ccc(OC)c(NC(=O)NC2CCN(c3ccccc3)C2=O)c1` (stereo not given) gave an RP-LC retention time of 788 s.

`COc1cccc(C(O)CN2CCN(c3ccccn3)CC2)c1` (stereo not given) had an RP-LC retention time of 554 s.

Compound `O=C(C1CCCN(c2nccnc2Oc2ccccc2)C1)N1CCN(c2ccccc2Cl)CC1` (stereo not given) registered an RP-LC retention time of 1240 s.

`CCc1nc(-c2ccc3c(c2)CCN3C(=O)c2ccco2)no1` yielded an RP-LC retention time of 914 s.

In turn, `CCOC(=O)C1=C(CN(C)Cc2ccccc2)NC(=O)NC1c1ccccc1` (stereo not given) displayed an RP-LC retention time of 652 s.

In the case of `CC(C)(C)n1nnnc1C1CC2(CCOCC2)C(=O)N1Cc1ccc(F)cc1Cl` (stereo not given), the RP-LC retention time turned out to be 671 s.

On to `CCCn1cnc2cc(-c3noc(COc4cccc(C)c4)n3)ccc21`, for which the RP-LC retention time is 840 s.

In the case of `Cn1c(=O)c(-c2ccc(C(=O)NCCCN3CCCC3)cc2)nc2ccccc21`, the RP-LC retention time turned out to be 616 s.

In turn, `CCC(C(=O)NCC(=O)Nc1nc2ccccc2[nH]1)c1ccccc1` (stereo not given) came in with an RP-LC retention time of 654 s.

Compound `COc1ccc(N2CCN(C(=O)c3ccc(-c4cccs4)nc3)CC2)cc1` displayed an RP-LC retention time of 852 s.

On to `c1ccc(-c2nc3nccc(-c4cccc5ccccc45)n3n2)cc1`, for which the RP-LC retention time came out at 995 s.

The compound `CCOC(=O)NCC1CCN(Cc2ccccc2SC)CC1` showed an RP-LC retention time of 566 s.

As to `COc1nc2ccccc2nc1N1CCCC(C(=O)Nc2cccc(Cl)c2)C1` (stereo not given), the RP-LC retention time came to 1220 s.

The compound `C=CCn1c(=O)c2ccccc2n(Cc2nc(-c3ccccc3OC)no2)c1=O` had an RP-LC retention time of 940 s.

In the case of `CC(C)NC(=O)c1ccc(OCC2CCCN(C(=O)c3ccccc3)C2)cc1` (stereo not given), the RP-LC retention time is 825 s.

In turn, `O=C(Nc1nccnc1C(=O)NC1CCCC1)c1ccccc1` had an RP-LC retention time of 934 s.

`COc1ccc2cc(C(=O)Nc3ccccc3)[nH]c2c1` showed an RP-LC retention time of 898 s.

`Cc1cc(Cl)ccc1S(=O)(=O)N1CCc2c(c(CN3CCCC3)nn2C)C1`: the RP-LC retention time is 679 s.

On to `O=C(Nc1ccccc1Cl)C(=O)c1c[nH]c2ccccc12`, for which the RP-LC retention time is 1130 s.

As to `O=C(c1ccccc1OCC1CCCNC1)N1CCOCC1` (stereo not given), the RP-LC retention time stood at 576 s.

In the case of `CCC(CC)C(=O)NCC(c1ccc(Br)cc1)c1c[nH]c2ccccc12` (stereo not given), the RP-LC retention time stood at 945 s.

With `CCCCN(CC)c1ccc(C(=O)O)cc1NC(=O)c1cccs1`, the RP-LC retention time was 1070 s.

Turning to `COc1ccc(NC(=O)Cn2nc3cc(-c4ccccc4)nc(C)n3c2=O)cc1`, the RP-LC retention time was found to be 661 s.

`CCc1nn(CC(=O)N2CCN(c3ccccn3)CC2)c(=O)c2cc3sccc3n12` gave an RP-LC retention time of 612 s.

`O=C1CCC(NC(=O)OCc2ccccc2)(C(=O)OCc2ccccc2)O1` (stereo not given) showed an RP-LC retention time of 830 s.

In turn, `COc1cccc(CNC(=O)CN2C(=O)NC(c3ccccc3Cl)C3=C2COC3=O)c1` (stereo not given) showed an RP-LC retention time of 780 s.

In turn, `O=C(Nc1ccc(F)cc1)c1c(O)c2cccnc2n(-c2ccc(F)cc2)c1=O` displayed an RP-LC retention time of 1200 s.

Compound `O=C(Nc1ccccc1)N1CCC(n2cnc3c(Cl)cccc3c2=O)CC1` showed an RP-LC retention time of 784 s.

In turn, `O=C(Cn1cc(-c2ccc(F)cc2)oc1=O)NC1CCN(Cc2ccccc2)CC1` registered an RP-LC retention time of 632 s.

As for `Cc1ccc(-n2nc3c(=O)n(CCCC(=O)NCCCN4CCCC4=O)nc(C)c3c2C)cc1`, the RP-LC retention time amounted to 683 s.

As for `CCc1cc(=O)n(CC(=O)NC2CCCC2)c(N2CCOCC2)n1`, the RP-LC retention time came to 647 s.

`Cc1nn(-c2ccc(-c3ccccc3)nn2)c(C)c1S(=O)(=O)N1CCCC1` displayed an RP-LC retention time of 996 s.

In the case of `CCN1C(=O)C2(CCN(S(=O)(=O)c3c(C)nn(C)c3C)CC2)c2ccccc21`, the RP-LC retention time turned out to be 841 s.

In turn, `COc1cccc(C2Cn3nnc(-c4nc(-c5ccccc5OC)no4)c3CO2)c1` (stereo not given) displayed an RP-LC retention time of 1010 s.

For `O=C(CSc1nnc(-c2ccc3c(c2)OCCCO3)n1C1CC1)N1CCCC1`, the RP-LC retention time is 710 s.

Take `CCOC(=O)c1nc(NC2CCN(Cc3ccccc3)CC2)c2ccccc2n1`: the RP-LC retention time amounted to 607 s.

As for `Cc1cc(C)c(S(=O)(=O)Nc2cccc(-c3cn4ccccc4n3)c2)c(C)c1`, the RP-LC retention time came out at 667 s.

`CCCC(=O)N1CCN(c2nc3ccccc3nc2C(F)(F)F)CC1` registered an RP-LC retention time of 1020 s.

For `CCC(=O)N1CCc2cc(-c3ccc(C(=O)NCCc4ccco4)cc3)ccc21`, the RP-LC retention time worked out at 888 s.

For the compound `Cc1ccsc1C(=O)N1CCC2(CC1)NC(=O)N(Cc1cccc(Cl)c1)C2=O`, the RP-LC retention time came to 852 s.

Consider `O=C(NCc1cccs1)c1ccc(N2CCCCS2(=O)=O)cc1`, for which the RP-LC retention time was 696 s.

Consider `CCc1cc(C(=O)Nc2cccc(C#N)c2)nc2ccnn12`, for which the RP-LC retention time was determined as 939 s.

The compound `O=C(CN1CCN(C(=O)Nc2ccc(Br)cc2)CC1=O)Nc1ccc(F)cc1F` returned an RP-LC retention time of 1020 s.

`O=C(COc1ccccc1F)Nc1ccc(Cl)c(N2CCCS2(=O)=O)c1` displayed an RP-LC retention time of 791 s.

Turning to `Fc1cccc(-c2nc(Cn3ccnc3)no2)c1`, the RP-LC retention time was 577 s.

`Cc1ccc(C)c(N2CCN(c3ccnc(SCC(=O)NCc4ccccc4)n3)CC2)c1` gave an RP-LC retention time of 858 s.

In turn, `CCN1CCN(C(=O)c2csc(N3CCN(c4ccc(OC)cc4)CC3)n2)CC1` displayed an RP-LC retention time of 654 s.

With `CCn1nccc1C(=O)N1CCN(c2ncnc3c2CCC3)CC1`, the RP-LC retention time turned out to be 556 s.

`O=c1c2sccc2n(Cc2nc(-c3ccccc3)no2)c(=O)n1-c1ccccc1F` yielded an RP-LC retention time of 969 s.

On to `O=S(=O)(c1ccccc1)c1[nH]c(-c2ccccc2)nc1SCc1ccncc1`, for which the RP-LC retention time was found to be 651 s.

On to `C[C@H](NC(=O)/C(C#N)=C/c1cccc(Br)n1)c1ccccc1`, for which the RP-LC retention time is 934 s.

The compound `COC(=O)[C@H]1[C@H]2C[C@H]3c4[nH]c5cc(OC)ccc5c4CCN3C[C@H]2C[C@@H](OC(=O)c2cc(OC)c(OC)c(OC)c2)[C@@H]1OC` returned an RP-LC retention time of 913 s.

The compound `COC(=O)c1ccc(C(=O)NCC2CCN(S(C)(=O)=O)CC2)cc1` returned an RP-LC retention time of 637 s.
